Test results reported in patent US20220128545A1, “METHODS AND COMPOSITIONS FOR ANALYZING PLATELETS BY MASS CYTOMETRY” (Children's Medical Center Corporation, priority 2018, published 2022).
Read-outs that look alike come from different tables or passages of the source. Bridge positions count the residues as written; N and C are the ends. Square brackets hold non-standard residues; d marks the D form. Peptide text beside a SMILES is read from it. hArg = N=C(N)NCCCC[C@H](N)C(=O)O; Mpa = O=C(O)CCS

How the values were obtained:
[1] = test system: platelet surface activated integrin αIIbβ3; assay: cells; type: cell-based, human
Protocol: (§1) FIGS. 2A-2D depict a comparison of MC and FFC platforms for measurement of agonist-stimulated integrin αIIbβ3 activation (PAC1) and P-selectin expression (CD62P) on platelets. Citrate-anticoagulated blood from 3 separate healthy donors was treated with vehicle or the indicated concentrations of ADP (A, B) or thrombin receptor activating peptide (TRAP) (C, D); for 30 minutes in the presence of PAC1-FITC or […] antibodies to assess integrin αIIbβ3 activation (A, C) and CD62P-PE or CD62P-172Yb antibodies to assess a-granule secretion (B, D). Samples were fixed in 1% formaldehyde and analyzed by MC or FFC. Data were analyzed using a non-linear fit of log agonist vs. response; variable slope in GraphPad Prism 5. Results are expressed as a percentage of mean metal intensity (MMI; MC readout) or the mean fluorescence intensity (MFI; FFC readout) achieved with 200 μM adenosine diphosphate (ADP) or TRAP, respectively (means±SEM; n=2/3, with n=2 accounting for the linear region of the TRAP dose-response [concentrations 1.5-3.5 μM] and n=3 accounting for all other concentrations [0-1 μM & 5-200 μM]).
(§2) Blood was collected by venipuncture with a 21-gauge butterfly needle into evacuated tubes containing 3.2% sodium citrate. Blood was drawn from healthy volunteers or GT patients who were free from antiplatelet agents and non-steroidal anti-inflammatory drugs for 10 days prior to the donation. The blood draws were performed by the same phlebotomist. Complete blood cell counts were performed in a Sysmex XN-1000 Hematology Analyzer.
(§3) A panel of metal-labeled antibodies directed against platelet antigens of interest was assembled (FIG. 1A). Antibody clones were well-characterized, widely used and purchased from reputable vendors. Platelets in whole blood were reacted with the panel (containing anti-CD9-171Yb, anti-CD29-176Yb, anti-CD31-145Nd, anti-CD36-150Nd, anti-CD42a-155Gd, anti-CD42b-163Dy, anti-CD41-149Sm, anti-CD62P-172Yb, anti-CD61-165Ho, anti-CD63-161Dy, anti-CD107a-166Er, anti-CD154-154Sm, anti-GPVI-152Sm and anti-PAC1-159Tb; see FIG. 1A, Materials, and Table 1 for antibody information) in the presence of vehicle (HT-BSA), TRAP or ADP at the indicated concentrations for 30 minutes (FIG. 1B). Samples were fixed in 1% formaldehyde/HEPES-saline solution containing 125 nM Iridium 191/193 Cell-ID DNA Intercalator for 30 minutes. […] Samples were passed through a 35 μm cell-strainer (Corning Inc, Corning, N.Y.) and analyzed on a Helios Mass Cytometer (Fluidigm Corporation, San Francisco, Calif.; FIG. 1C). […]
(§4) Data were analyzed using GraphPad version 5.0 software (GraphPad Software, La Jolla, Calif.) and are presented as mean±standard error of the mean. […]

[2] = test system: platelet surface P-selectin (CD62P); assay: cells; type: cell-based, human
Protocol: as §1, §2, §3, §4

[3] = target: T1, activated integrin αIIbβ3 (Homo sapiens, UniProt P05106+P08514); assay: Specificity of in-house metal-tagged PAC1 for integrin αIIbβ3 (agonist stimulation, eptifibatide blockade) by MC; type: cell-based; conditions: whole blood; for Platelet surface activated αIIbβ3 expression compared with unstimulated controls: 200 μM agonist, PAC1-159Tb
T1 construct: endogenous in cells; host or cells: platelets in citrate-anticoagulated human whole blood
Source text: FIG. 6. depicts measuring the specificity of in-house metal-tagged PAC1 for integrin αIIbβ3. […] Samples were fixed in 1% formaldehyde and analyzed by MC. […] Statistical analysis: 1-way ANOVA was used in conjunction with a Bonferroni post-test (with all results compared to the MMI achieved with agonist stimulation) to indicate statistical significance; **P<0.01 and ***P<0.001.
as §3
To compare the MC and FFC platforms for platelet analysis a novel metal-tagged MC antibody panel was designed to target well-established surface markers on platelets (FIG. 1A, Table 1) including platelet surface P-selectin (monitored with anti-CD62P-172Yb) and platelet surface activated integrin αIIbβ3 (monitored with the activation-dependent monoclonal antibody PAC1, labeled in-house with 159Tb). The specificity of PAC1-159Tb for activated αIIbβ3 was assessed by its dependence on platelet activation for binding and by its blockade by the αIIbβ3 inhibitor, eptifibatide (FIG. 6A-6B).

[4] = test system: platelet surface activated integrin αIIbβ3; assay: cells; type: cell-based, human; remark: listed apart in the source
Protocol: as §1, §2
(§5) Whole blood FFC analysis of platelet activation was performed as previously described. Three color analysis was performed using two cocktails of fluorescently labeled antibodies: PE-conjugated anti-CD62P, FITC-conjugated PAC1 (directed against the high affinity conformation of integrin αIIbβ3) and PE-Cy5-conjugated anti-CD42b; or PE-conjugated anti-CD41a, FITC-conjugated anti-CD61 and PE-Cy5-conjugated anti-CD42b (see Table 2 for antibody information). Citrate-anticoagulated whole blood was treated with vehicle, TRAP or ADP at the indicated concentrations in the presence of the appropriate fluorescently labeled antibody cocktail for 30 minutes at ambient temperature. Samples were fixed in 1% formaldehyde/HEPES-saline buffer for 30 minutes prior to analysis in a FACSCalibur flow cytometer (BD Biosciences, San Jose, Calif.). Platelets were gated based on forward light scatter, side light scatter and CD42b expression (see FIG. 8 for FFC platelet gating strategy). A total of 15,000 platelet events per sample were collected. […]
as §4

[5] = test system: platelet surface P-selectin (CD62P); assay: cells; type: cell-based, human; remark: listed apart in the source
Protocol: as §1, §2, §5, §4

platelets in whole blood = assay: MC panel of 12 additional platelet surface markers during TRAP or ADP stimulation; type: cell-based, human; conditions: 30 minutes; for Platelet surface CD41, CD61, CD63, CD9, CD107a and CD154 / Platelet surface CD42a and CD42b: agonist 0-200 μM; for Surface plasma membrane levels of CD31, CD36, CD29 and GPVI: varying agonist concentrations
Protocol: Citrate-anticoagulated blood from the same 3 separate healthy donors in FIGS. 2A-2D was simultaneously treated with vehicle or the indicated concentrations of TRAP (A) or ADP (B) for 30 minutes in the presence of a custom platelet-specific, metal-tagged antibody panel. This panel contained antibodies directed against CD41, CD61, CD63, CD9, CD107a, CD154, CD42a, CD42b, CD31, CD36, CD29 and GPVI. Samples were fixed in 1% formaldehyde and analyzed by MC. Data were analyzed using a non-linear fit of log agonist vs. response; variable slope or linear regression in GraphPad Prism 5. Results are expressed as a percentage of the mean metal intensity (MMI) achieved with 200 μM ADP or TRAP (means±SEM; n=2/3, with n=2 accounting for the linear region of the TRAP dose-response [concentrations 1.5-3.5 μM)] and n=3 accounting for all other concentrations [0-1 μM and 5-200 μM]). Statistical analysis: 1-way ANOVA was used in conjunction with a Dunnett multiple comparison test (all results compared to vehicle control) to indicate statistical significance; *P<0.05, **P<0.01 and ***P<0.001. Abbreviations: ADP, adenosine diphosphate; FFC, fluorescence flow cytometry; MC, mass cytometry; TRAP, thrombin receptor activating peptide.
A panel of metal-labeled antibodies directed against platelet antigens of interest was assembled (FIG. 1A). Antibody clones were well-characterized, widely used and purchased from reputable vendors. Platelets in whole blood were reacted with the panel (containing anti-CD9-171Yb, anti-CD29-176Yb, anti-CD31-145Nd, anti-CD36-150Nd, anti-CD42a-155Gd, anti-CD42b-163Dy, anti-CD41-149Sm, anti-CD62P-172Yb, anti-CD61-165Ho, anti-CD63-161Dy, anti-CD107a-166Er, anti-CD154-154Sm, anti-GPVI-152Sm and anti-PAC1-159Tb; see FIG. 1A, Materials, and Table 1 for antibody information) in the presence of vehicle (HT-BSA), TRAP or ADP at the indicated concentrations for 30 minutes (FIG. 1B). Samples were fixed in 1% formaldehyde/HEPES-saline solution containing 125 nM Iridium 191/193 Cell-ID DNA Intercalator for 30 minutes. Cells were washed two times in MilliQ deionized H2O to remove salts and resuspended in 0.5 mL of MilliQ deionized H20 containing EQ Four Element Calibration Beads (1:10 v/v [33,000 beads/mL]). Samples were passed through a 35 μm cell-strainer (Corning Inc, Corning, N.Y.) and analyzed on a Helios Mass Cytometer (Fluidigm Corporation, San Francisco, Calif.; FIG. 1C). Cell events were acquired at 300-500 events per second and >30,000 events were acquired in total. Platelets were gated based on DNA content (DNA-low) and CD41/CD61 expression (see FIG. 8 for the MC platelet gating strategy). High-dimensional analyses of platelet subpopulations were carried out using the visual stochastic neighbor embedding (viSNE) cluster analysis function in CYTOBANK™ software (www.cytobank.org). Experiments were carried out by the same scientist and all reagents were from the same lot.

T1 sequence (P08514 32-887 limits assumed): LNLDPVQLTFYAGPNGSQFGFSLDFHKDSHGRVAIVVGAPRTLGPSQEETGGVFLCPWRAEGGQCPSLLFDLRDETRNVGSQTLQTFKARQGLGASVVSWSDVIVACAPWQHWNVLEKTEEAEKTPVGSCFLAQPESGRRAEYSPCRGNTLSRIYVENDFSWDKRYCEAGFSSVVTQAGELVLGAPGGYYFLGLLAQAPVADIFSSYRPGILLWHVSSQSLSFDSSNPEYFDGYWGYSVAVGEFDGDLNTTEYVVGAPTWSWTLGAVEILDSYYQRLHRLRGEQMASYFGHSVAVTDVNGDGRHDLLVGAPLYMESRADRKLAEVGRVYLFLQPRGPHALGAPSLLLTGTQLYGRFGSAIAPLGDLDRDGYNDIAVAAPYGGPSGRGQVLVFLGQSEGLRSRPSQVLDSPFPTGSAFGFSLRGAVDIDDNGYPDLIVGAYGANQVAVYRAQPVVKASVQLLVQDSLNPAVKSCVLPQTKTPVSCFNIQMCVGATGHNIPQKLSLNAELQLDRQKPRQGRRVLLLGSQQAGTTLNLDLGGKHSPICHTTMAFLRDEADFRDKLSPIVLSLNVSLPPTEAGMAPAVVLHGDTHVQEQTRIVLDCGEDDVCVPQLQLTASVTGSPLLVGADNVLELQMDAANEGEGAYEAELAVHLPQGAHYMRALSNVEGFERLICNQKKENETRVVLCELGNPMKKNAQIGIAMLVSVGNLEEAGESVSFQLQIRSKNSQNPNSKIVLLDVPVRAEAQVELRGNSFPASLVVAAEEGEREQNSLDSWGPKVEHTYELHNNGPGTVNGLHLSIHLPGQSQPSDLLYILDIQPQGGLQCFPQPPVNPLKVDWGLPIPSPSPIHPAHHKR
T1 sequence (P08514 891-1039 limits assumed): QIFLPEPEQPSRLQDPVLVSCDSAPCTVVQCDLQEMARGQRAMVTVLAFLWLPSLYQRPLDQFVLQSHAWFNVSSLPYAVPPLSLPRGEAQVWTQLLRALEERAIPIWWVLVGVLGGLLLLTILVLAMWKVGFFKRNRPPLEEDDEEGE
T1 sequence (P05106 27-788): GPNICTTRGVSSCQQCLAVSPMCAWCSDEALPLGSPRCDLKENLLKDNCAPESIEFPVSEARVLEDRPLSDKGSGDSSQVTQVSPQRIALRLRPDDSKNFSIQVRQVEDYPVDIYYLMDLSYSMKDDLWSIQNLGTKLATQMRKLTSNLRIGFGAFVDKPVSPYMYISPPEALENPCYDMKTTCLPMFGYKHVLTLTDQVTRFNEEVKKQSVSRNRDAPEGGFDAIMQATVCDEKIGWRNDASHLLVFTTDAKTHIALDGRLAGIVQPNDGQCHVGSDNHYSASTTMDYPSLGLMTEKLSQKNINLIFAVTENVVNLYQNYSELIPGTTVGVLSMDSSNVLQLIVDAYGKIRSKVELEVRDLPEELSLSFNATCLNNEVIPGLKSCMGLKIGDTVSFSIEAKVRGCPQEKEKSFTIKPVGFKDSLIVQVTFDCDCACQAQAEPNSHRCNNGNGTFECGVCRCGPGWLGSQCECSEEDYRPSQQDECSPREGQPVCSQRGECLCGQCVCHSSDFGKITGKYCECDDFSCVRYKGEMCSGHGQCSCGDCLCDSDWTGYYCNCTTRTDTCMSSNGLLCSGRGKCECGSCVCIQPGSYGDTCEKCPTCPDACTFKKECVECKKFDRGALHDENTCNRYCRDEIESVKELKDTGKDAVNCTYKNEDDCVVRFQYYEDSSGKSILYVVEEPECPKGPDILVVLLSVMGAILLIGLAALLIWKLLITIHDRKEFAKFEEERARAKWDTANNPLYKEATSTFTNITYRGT

Row | Platelet surface activated αIIbβ3 expression compared with unstimulated controls [3] | EC50 [1] [µM] | EC50 [2] [µM] | EC50 [4] [µM] | EC50 [5] [µM] | Blockade of anti-PAC1-159Tb binding to activated integrin αIIbβ3 ([3]; eptifibatide 2.5 μg/mL, following TRAP/ADP (200 μM) stimulation) | Structure (SMILES) | EC50 ([1]; Homo sapiens, Platelet, 0.5 h, MC, anti-PAC1-159Tb, citrate whole blood of healthy donors, 30 minutes, read-out: EC50 for agonist-induced platelet surface activated αIIbβ3) [µM] | EC50 ([2]; Homo sapiens, Platelet, 0.5 h, MC, CD62P-172Yb, citrate whole blood of healthy donors, 30 minutes, read-out: EC50 for agonist-induced platelet surface P-selectin expression) [µM] | EC50 ([4]; Homo sapiens, Platelet, 0.5 h, FFC, anti-PAC1-FITC, citrate whole blood of healthy donors, 30 minutes, read-out: EC50 for agonist-induced platelet surface activated αIIbβ3) [µM] | EC50 ([5]; Homo sapiens, Platelet, 0.5 h, FFC, CD62P-PE, citrate whole blood of healthy donors, 30 minutes, read-out: EC50 for agonist-induced platelet surface P-selectin expression) [µM] | Platelet surface CD41, CD61, CD63, CD9, CD107a and CD154 (platelets in whole blood) | Platelet surface CD42a and CD42b (platelets in whole blood) | Surface plasma membrane levels of CD31, CD36, CD29 and GPVI (platelets in whole blood)
1 | significantly elevated |  |  |  |  |  | Nc1ncnc2c1ncn2[C@@H]1O[C@H](COP(=O)(O)OP(=O)(O)O)[C@@H](O)[C@H]1O [ADP, Adenosine 5′-diphosphate] | 0.8 | 1.3 | 0.6 | 1.2 | elevated in a dose-dependent manner | stayed constant | remained constant
2 | significantly elevated | 3.7 | 3.4 | 2.1 | 2.3 |  | CC(C)C[C@H](NC(=O)[C@H](CC(C)C)NC(=O)[C@H](Cc1ccccc1)NC(=O)[C@@H](N)CO)C(=O)N[C@@H](CCCNC(=N)N)C(=O)N[C@@H](CC(N)=O)C(N)=O [TRAP, SFLLRN-NH2] |  |  |  |  | elevated in a dose-dependent manner | trend to be dose-dependently decreased | remained constant
3 |  |  |  |  |  | completely blocked | N=C(N)NCCCC[C@@H]1NC(=O)CCSSC[C@@H](C(N)=O)NC(=O)[C@@H]2CCCN2C(=O)[C@H](Cc2c[nH]c3ccccc23)NC(=O)[C@H](CC(=O)O)NC(=O)CNC1=O [eptifibatide] ([Mpa][hArg]GDWPC-NH2; disulfide 1-7) |  |  |  |  |  |  | 
